Data reported in PubChem BioAssay AID248 (DTP/NCI, 2004).
Inconclusive results and toxic doses are left out. Cut-off read from the data, not from the text of the source: active = T/C of 150% or more; inactive = T/C below 125%.

Test system: L1210 leukemia ip in BDF1 mice, survival T/C
Assay: NCI In Vivo Anticancer Drug Screen. Data for tumor model L1210 Leukemia (intraperitoneal) in B6D2F1 (BDF1) mice
Conditions: endpoint: mean survival time, higher = longer survival
Outline: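 In this screen, tumor-bearing mice given compound are compared to those given vehicle, and their survival values are reported as a treated-to-control quotient.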

Measured: T/C

CCOC(=O)C1C2C=CC(N3C(=O)c4ccccc4C3=O)CC21 (stereo not drawn)
inactive: dose: 100.0 mg/kg/injection, schedule: Q01DX009 (ip), vehicle: gum acacia 92 % of control | dose: 200.0 mg/kg/injection, schedule: Q01DX009 (ip), vehicle: gum acacia 91 % of control | dose: 400.0 mg/kg/injection, schedule: Q01DX009 (ip), vehicle: gum acacia 97 % of control

O=C(NO)c1ccc(C(=O)NO)c(Br)c1
inactive: dose: 100.0 mg/kg/injection, schedule: Q01DX009 (ip), vehicle: saline 103 % of control | dose: 100.0 mg/kg/injection, schedule: Q04DX003 (ip), vehicle: saline 107 % of control | dose: 200.0 mg/kg/injection, schedule: Q01DX009 (ip), vehicle: saline 112 % of control | dose: 200.0 mg/kg/injection, schedule: Q04DX003 (ip), vehicle: saline 107 % of control | dose: 400.0 mg/kg/injection, schedule: Q01DX009 (ip), vehicle: saline 108 % of control | dose: 400.0 mg/kg/injection, schedule: Q04DX003 (ip), vehicle: saline 105 % of control

CN(C)C1CS(=O)(=O)C1C1CS(=O)(=O)C1 (stereo not drawn)
inactive: dose: 100.0 mg/kg/injection, schedule: Q04DX002 (ip), vehicle: Klucel (hydroxypropylcellulose) (HPC) 89 % of control | dose: 200.0 mg/kg/injection, schedule: Q04DX002 (ip), vehicle: Klucel (hydroxypropylcellulose) (HPC) 86 % of control | dose: 400.0 mg/kg/injection, schedule: Q04DX002 (ip), vehicle: Klucel (hydroxypropylcellulose) (HPC) 96 % of control

O=C(CN1CCCCC1)c1ccc2oc3ccccc3c2c1
inactive: dose: 100.0 mg/kg/injection, schedule: Q04DX003 (ip), vehicle: Klucel (hydroxypropylcellulose) (HPC) 96 % of control | dose: 200.0 mg/kg/injection, schedule: Q04DX003 (ip), vehicle: Klucel (hydroxypropylcellulose) (HPC) 96 % of control | dose: 400.0 mg/kg/injection, schedule: Q04DX003 (ip), vehicle: Klucel (hydroxypropylcellulose) (HPC) 87 % of control

CC(=O)NC(C(=O)O)C(C)C (stereo not drawn)
inactive: dose: 100.0 mg/kg/injection, schedule: Q01DX001 (ip), vehicle: saline 97 % of control | dose: 200.0 mg/kg/injection, schedule: Q01DX001 (ip), vehicle: saline 87 % of control | dose: 400.0 mg/kg/injection, schedule: Q01DX001 (ip), vehicle: saline 99 % of control
